Values after ≈ are worked out from the molar mass of the structure shown. Where two headings read alike, the source gives them in different places.
Columns and labels:
[1] = Solubility experiment of TH-302 (saturated solution method, HPLC); assay type: physicochemical; conditions: thermodynamic from solid
Protocol: The solubility is measured in an experiment by the saturated solution method; that is, the solid TH-302 was directly charged into the solvent until insoluble matter or turbidity appears. After clarification for a period of time, the solution was directly filtered. The clarified filtrate was taken directly for determination of the concentration of TH-302. The resulting concentration is exactly the solubility of TH-302 in this solvent system. Please refer to Tables 1, 2, and 3 for specific solubility data.
For the method for measuring the concentration of TH-302 (mg/ml), please refer to the HPLC method described in the patent WO2008083101A1 owned by Threshold Pharmaceuticals Inc. (see Example 2. An Ethanol Formulation of TH302, for details); and the external standard method was used for quantification.

[2] = Saturated solubility of the drug in D5W solution under strong shaking; assay type: physicochemical; conditions: 5% glucose solution (D5W), saline or isotonic, thermodynamic from solid, shaken 2 minutes, filtered, room temperature 24 hours
Protocol: The TH-302 sample was weighed accurately in an amount of about 60 mg, placed in a transparent vial, and added with 6 mL of 5% glucose solution (D5W). The resulting solution was shaken vigorously for 2 minutes to obtain a solubility- stock solution. It was observed that the solubility-stock solution contained insoluble substances. Thus, the solubility- stock solution was filtered and then became clear. […] This value was exactly the saturated solubility of the drug in D5W solution.

[3] = Freeze-thaw cycle stability of freeze-dried formulations; assay type: physicochemical; conditions: TH-302 active pharmaceutical ingredient used for the two batches
Protocol: The freeze-thaw test was to place the sample in the dark at (-20°C±5°C) for 2 days, and at (25°C±5°C) for another 2 days, as a cycle. The HPLC purity of TH-302 in the freeze-dried samples was determined. Table 32: HPLC purity test data of TH-302 active pharmaceutical ingredient, two batches of prepared freeze-dried formulations, and the freeze-dried formulations after three freeze-thaw cycles (%)

[4] = concentrated injection with ethanol, dimethlyacetamide, polysorbate 80; mainly induced by dimethlyacetamide; WO2015013448A1; cited from earlier work

With Cn1c(COP(=O)(NCCBr)NCCBr)cnc1[N+](=O)[O-] [TH-302] the solubility ([1]; 1% N,N-dimethylacetamide aqueous solution (volume), water, 1%N,N-dimethlyacetamide aqueous solution (volume), read-out: Solubility) was 8050 µg/mL (≈ 17.9 mM), the solubility ([1]; 1% ethanol aqueous solution (volume), water, read-out: Solubility) was 6580 µg/mL (≈ 14.7 mM) and the solubility ([1]; 1% polyethylene glycol aqueous solution (volume), water, read-out: Solubility) was 6810 µg/mL (≈ 15.2 mM). The solubility ([1]; 20% ethanol aqueous solution (volume), aqueous with cosolvent or surfactant or cyclodextrin, read-out: Solubility) was 8400 µg/mL (≈ 18.7 mM), the solubility ([1]; aqueous with cosolvent or surfactant or cyclodextrin, 1%Tween 80 aqueous solution (volume), read-out: Solubility) was 7210 µg/mL (≈ 16.1 mM) and the solubility ([1]; aqueous with cosolvent or surfactant or cyclodextrin, 20% tert-butanol aqueous solution, volume ratio, commercial TH-302, read-out: Solubility) was 10000 µg/mL. It also gave a solubility ([1]; aqueous with cosolvent or surfactant or cyclodextrin, 30% tert-butanol in water, mass ratio, TH-302 synthesized by the applicants, read-out: Solubility) of 42000 µg/mL, a solubility ([1]; aqueous with cosolvent or surfactant or cyclodextrin, 40% tert-butanol aqueous solution, volume ratio, commercial TH-302, read-out: Solubility) of over 40000 µg/mL and a solubility ([1]; organic solvent or mixture, 60% tert-butanol in water, mass ratio, TH-302 synthesized by the applicants, read-out: Solubility) of 146000 µg/mL. The solubility ([1]; organic solvent or mixture, 70% tert-butanol in water, mass ratio, TH-302 synthesized by the applicants, read-out: Solubility) was 165000 µg/mL, the solubility ([1]; organic solvent or mixture, 75% tert-butanol in water, mass ratio, TH-302 synthesized by the applicants, read-out: Solubility) was 151000 µg/mL and the solubility ([1]; organic solvent or mixture, 80% tert-butanol aqueous solution, volume ratio, commercial TH-302, read-out: Solubility) was 88500 µg/mL. For the same compound, the solubility ([1]; organic solvent or mixture, 80% tert-butanol in water, mass ratio, TH-302 synthesized by the applicants, read-out: Solubility) was 143000 µg/mL, the solubility ([1]; organic solvent or mixture, 90% tert-butanol aqueous solution, volume ratio, commercial TH-302, read-out: Solubility) was 76400 µg/mL and the solubility ([1]; organic solvent or mixture, 90% tert-butanol in water, mass ratio, TH-302 synthesized by the applicants, read-out: Solubility) was 66600 µg/mL. For the same compound, the solubility ([1]; organic solvent or mixture, 90% tert-butanol/10% ethanol, volume ratio, commercial TH-302, read-out: Solubility) was 10700 µg/mL, the solubility ([1]; organic solvent or mixture, 95% tert-butanol aqueous solution, volume ratio, commercial TH-302, read-out: Solubility) was 32300 µg/mL and the solubility ([1]; organic solvent or mixture, 95% tert-butanol in water, mass ratio, TH-302 synthesized by the applicants, read-out: Solubility) was 36800 µg/mL. The solubility ([1]; organic solvent or mixture, 95% tert-butanol/5% ethanol, volume ratio, commercial TH-302, read-out: Solubility) was 9980 µg/mL, the solubility ([1]; organic solvent or mixture, 100% tert-butanol, TH-302 synthesized by the applicants, read-out: Solubility) was 11800 µg/mL (≈ 26.2 mM) and the solubility ([1]; organic solvent or mixture, tert-butanol, commercial TH-302, read-out: Solubility) was 8980 µg/mL (≈ 20 mM). The solubility ([1]; pH 2, simulated gastric fluid, pH2, HCl solution, read-out: Solubility) was 6940 µg/mL (≈ 15.5 mM), the solubility ([1]; pH 4, aqueous buffer, pH4, phthalate buffer solution, read-out: Solubility) was 7220 µg/mL (≈ 16.1 mM) and the solubility ([1]; pH 6, aqueous buffer, pH6, phosphate buffer solution, read-out: Solubility) was 5810 µg/mL (≈ 12.9 mM). For the same compound, the solubility ([1]; pH 7, aqueous buffer, pH7, phosphate buffer solution, read-out: Solubility) was 5870 µg/mL (≈ 13.1 mM), the solubility ([1]; pH 8, aqueous buffer, pH8, phosphate buffer solution, read-out: Solubility) was 5940 µg/mL (≈ 13.2 mM) and the solubility ([1]; pH 10, aqueous buffer, pH10, borate buffer solution, read-out: Solubility) was 6070 µg/mL (≈ 13.5 mM). It also gave a solubility ([1]; tert-butanol-water mixed solvent, aqueous with cosolvent or surfactant or cyclodextrin, summary statement, maximum reached, read-out: solubility in the tert-butanol-water mixed solvent system) of at least 160000 µg/mL, a solubility at 2 min [2] of 7250 µg/mL (≈ 16.1 mM) and an HPLC purity [3] of 95.87%. For the same compound, the TH-302 administration reactions [4] was “lip swelling and urticaria”.

From patent EP4674418A1, “SOLUTION, FREEZE-DRIED FORMULATION, FREEZE-DRIED F[…] PACKAGE, INJECTION, AND INJECTION PREPARATION METHOD” (Ascentawits Pharmaceuticals, Ltd., priority 2023, dated 2024)
